Measurements reported in patent US10464925B2, “Methods to induce targeted protein degradation through bifunctional molecules” (Dana-Farber Cancer Institute, Inc., priority 2015, dated 2019).

What was measured:
Assay in all cases: cells
[1] = system: HCC1315; conditions: 72 h
[2] = system: SUM159; conditions: SUM159, 72 h
[3] = system: T47D; conditions: Homo sapiens, 72 h

Cc1sc2c(c1C)C(c1ccc(Cl)cc1)=N[C@@H](CC(=O)NCCCCCCCCNC(=O)COc1cccc3c1C(=O)N(C1CCC(=O)NC1=O)C3=O)c1nnc(C)n1-2 (stereo partly drawn) [dBET6]
Emax ([1]; read-out: Emax (%) HCC1315): 41.2% | IC50 ([1]; read-out: IC50 (nM) HCC1315): 1060 nM | Emax ([2]; read-out: Emax (%) SUM159): 12% | IC50 ([2]; read-out: IC50 (nM) SUM159): 32.5 nM | Emax ([3]; read-out: Emax (%) T47D): 49.4% | IC50 ([3]; read-out: IC50 (nM) T47D): 7.46 nM
